In ChEMBL document CHEMBL4020805, “Design, synthesis and SAR of new-di-substituted pyridopyrimidines as ATP-competitive dual PI3Kα/mTOR inhibitors” (Bioorg Med Chem Lett, 2017):
Values after ≈ are worked out from the molar mass of the structure shown.

Experiments:
[1] = physchem; conditions: buffer, pH 7.4
[2] = in vitro; conditions: CD-1, mouse, liver microsomes

| Compound | solubility at 1.5 h, 200 µM [1] [µM] | half-life at 1 µM [2] [min] |
| --- | --- | --- |
| CCC(=O)c1ccc(NC(=O)Nc2ccc(-c3nc(N4CCOCC4)c4cccnc4n3)cc2)cc1 | 11.4 (≈ 5.5 µg/mL) | > 60 |
| O=C(Nc1ccc(-c2nc(N3CCOCC3)c3cccnc3n2)cc1)Nc1ccc(S(=O)(=O)Nc2ccc(F)cc2)cc1 | 4.2 (≈ 2.52 µg/mL) | 59.6 |
| O=C(Nc1ccc(C(=O)CCl)cc1)Nc1ccc(-c2nc(N3CCOCC3)c3ncccc3n2)cc1 | < 2 | > 60 |
| O=C(Nc1ccc(-c2nc(N3CCOCC3)c3ncccc3n2)cc1)Nc1ccc(S(=O)(=O)Nc2ccc(F)cc2)cc1 | < 2 | > 60 |
| CC(=O)c1ccc(NC(=O)Nc2ccc(-c3nc(N4CCOCC4)c4cccnc4n3)cc2)cc1 | < 2 | 59 |
| O=C(Nc1ccc(-c2nc(N3CCOCC3)c3ncccc3n2)cc1)Nc1ccc(S(=O)(=O)Nc2ccc(F)cc2F)cc1 | < 2 | > 60 |
| CCOC(=O)c1ccc(NC(=O)Nc2ccc(-c3nc(N4CCOCC4)c4cccnc4n3)cc2)cc1 | < 2 | > 60 |
| O=C(Nc1ccc(-c2nc(N3CCOCC3)c3cccnc3n2)cc1)Nc1ccc(S(=O)(=O)Nc2ccccc2)cc1 | < 2 | 26.9 |
| O=C(Nc1ccc(-c2nc(N3CCOCC3)c3cccnc3n2)cc1)Nc1ccc(S(=O)(=O)Nc2ccc(F)cc2F)cc1 | < 2 | 60 |
| O=C(Nc1ccc(-c2nc(N3CCOCC3)c3cccnc3n2)cc1)Nc1cccc(CO)c1 | 21.8 (≈ 9.95 µg/mL) | 30 |
| O=C(Nc1ccccc1)Nc1ccc(-c2nc(N3CCOCC3)c3ncccc3n2)cc1 | < 2 | 22.3 |
| O=C(Nc1ccc(-c2nc(N3CCOCC3)c3ncccc3n2)cc1)Nc1ccc(S(=O)(=O)Nc2ccccc2)cc1 | < 2 | 16.6 |
| O=C(Nc1ccc(CCO)cc1)Nc1ccc(-c2nc(N3CCOCC3)c3ncccc3n2)cc1 | < 2 | > 60 |
| Oc1cccc(-c2nc(N3CCOCC3)c3oc4ncccc4c3n2)c1 [PI-103] | 3.4 (≈ 1.18 µg/mL) | 7.1 |
